± gives the standard deviation of the averaged measurements.
What was measured:
Test in all cases: level (log10 ratio to DMSO vehicle control); higher = higher biomarker level / cell amount than vehicle control
[1] = compound: OCC(F)(F)C(F)(F)C(F)(F)C(F)(F)C(F)(F)C(F)(F)C(F)(F)C(F)(F)CO [1H,1H,10H,10H-Perfluorodecane-1,10-diol]; details: in DMSO
Description: (§1)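 BioMAP Diversity Plus panel of 12 human primary cell co-culture systems (3C, 4H, LPS, SAg, BT, BF4T, BE3C, CASM3C, HDF3CGF, KF3CT, MyoF, Mphg). Compounds were added 1 h before stimulation and left for 24 h (MyoF 48 h; BT 72 h for soluble read-outs or 6 d for IgG). Biomarkers were read by ELISA, cytotoxicity by SRB, PBMC viability and proliferation by Alamar Blue. Each well value was divided by the mean of 8 DMSO control wells on the same plate and log10 transformed; duplicate blinded samples were tested at 4 concentrations.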

[2] = compound: OCCCCC(F)(F)C(F)(F)C(F)(F)C(F)(F)F [4:4 Fluorotelomer alcohol]; details: in DMSO
Description: as §1

[3] = compound: O=C(Cl)C(F)(F)C(F)(F)C(F)(F)C(=O)Cl [Hexafluoroglutaryl chloride]; details: in DMSO
Description: as §1

[4] = compound: C=CC(=O)OCCC(F)(F)C(F)(F)C(F)(F)C(F)(F)C(F)(F)C(F)(F)C(F)(F)C(F)(F)F [8:2 Fluorotelomer acrylate]; details: in DMSO
Description: as §1

[5] = compound: OCC(F)(F)C(F)(F)C(F)(F)C(F)(F)C(F)(F)C(F)(F)C(F)(F)C(F)(F)C(F)(F)C(F)(F)C(F)(F)F [11:1 Fluorotelomer alcohol]; details: in DMSO
Description: as §1

[6] = compound: OCCCC(F)(F)C(F)(F)C(F)(F)C(F)(F)C(F)(F)C(F)(F)C(F)(F)C(F)(F)F [3-(Perfluorooctyl)propanol]; details: 6700 nM; in DMSO
Description: as §1

[7] = compound: FC(F)(I)C(F)(F)C(F)(F)C(F)(F)C(F)(F)C(F)(F)I [1,6-Diiodoperfluorohexane]; details: 6700 nM; in DMSO
Description: as §1

[8] = compound: OCCC(F)(F)C(F)(F)C(F)(F)C(F)(F)C(F)(F)C(F)(F)C(F)(F)C(F)(F)F [8:2 Fluorotelomer alcohol]; details: 6700 nM; in DMSO
Description: as §1

Test System | level (log10) ([1]; 6700 nM) | level (log10) ([1]; 20000 nM) | level (log10) ([1]; 60000 nM) | level (log10) ([2]; 6700 nM) | level (log10) ([2]; 20000 nM) | level (log10) ([2]; 60000 nM) | level (log10) ([3]; 6700 nM) | level (log10) ([3]; 20000 nM) | level (log10) ([3]; 60000 nM) | level (log10) ([4]; 6700 nM) | level (log10) ([4]; 20000 nM) | level (log10) ([4]; 60000 nM) | level (log10) ([5]; 1100 nM) | level (log10) ([5]; 3300 nM) | level (log10) ([5]; 10000 nM) | level (log10) [6] | level (log10) [7] | level (log10) [8]
3C:Proliferation | -0.047 ± 0.068 | -0.0735 ± 0.06 | -0.403 | -0.018 ± 0.031 | 0.0115 ± 0.011 | -0.009 ± 0.054 | -0.0045 ± 0.026 | 0.006 ± 0.018 | -0.0345 ± 0.036 | -0.035 ± 0.037 | -0.009 ± 0.048 | -0.0155 ± 0.005 | -0.189 ± 0.012 | -0.436 ± 0.042 | -0.338 ± 0.051 | -0.385 ± 0.027 | -0.102 | -0.0465 ± 0.005
4H:SRB | -0.0085 ± 0.011 | -0.026 ± 0.014 | -0.153 | -0.003 ± 0.013 | 0 ± 0.018 | -0.001 ± 0.023 | 0 ± 0.0014 | 0.0055 ± 0.015 | 0 ± 0.014 | -0.0045 ± 0.019 | -0.0035 ± 0.005 | 0.01 | -0.0105 ± 0.0092 | -0.0195 ± 0.0035 | -0.0005 ± 0.025 | -0.0015 ± 0.00071 | 0.009 | -0.014 ± 0.0042
LPS:IL-1alpha | 0.0225 ± 0.033 | 0.027 ± 0.016 | 0.066 | -0.01 ± 0.04 | -0.021 ± 0.028 | 0.014 ± 0.048 | -0.0955 ± 0.022 | -0.115 ± 0.015 | -0.057 ± 0.027 | 0.021 ± 0.013 | 0.0315 ± 0.052 | 0.0315 ± 0.0078 | -0.0655 ± 0.0092 | -0.14 ± 0.0035 | -0.144 ± 0.012 | -0.267 ± 0.065 | -0.016 | -0.015 ± 0.013
BT:B cell Proliferation | 0.0155 ± 0.00071 | 0.0195 ± 0.0078 | -0.316 | 0.0045 ± 0.018 | 0.005 ± 0.027 | -0.0015 ± 0.016 | 0.01 | -0.024 ± 0.0057 | -0.0095 ± 0.026 | 0.0155 ± 0.0021 | 0.0035 ± 0.00071 | -0.0005 ± 0.04 | -0.103 ± 0.023 | -0.144 ± 0.026 | -0.44 ± 0.42 | -0.0025 ± 0.0064 | -0.019 | 0.0245 ± 0.0064
4H:CCL26/Eotaxin-3 | -0.005 ± 0.037 | -0.0125 ± 0.035 | -0.179 | -0.017 ± 0.021 | -0.0345 ± 0.0021 | -0.025 ± 0.011 | 0.016 ± 0.017 | 0.021 ± 0.027 | 0.013 ± 0.016 | 0.0235 ± 0.0021 | -0.012 ± 0.018 | 0.01 ± 0.048 | 0.0025 ± 0.0035 | -0.0055 ± 0.0092 | -0.0085 ± 0.0078 | -0.009 ± 0.0042 | -0.037 | 0.017 ± 0.054
4H:CD62P/P-selectin | -0.029 ± 0.052 | -0.07 ± 0.083 | -0.169 | 0.023 ± 0.0028 | 0.019 ± 0.013 | 0.0115 ± 0.005 | -0.012 ± 0.033 | 0.0045 ± 0.026 | -0.0045 ± 0.043 | -0.018 ± 0.0028 | -0.092 ± 0.0028 | -0.047 ± 0.064 | -0.111 ± 0.042 | -0.095 ± 0.079 | -0.139 ± 0.13 | -0.0465 ± 0.022 | -0.001 | -0.0615 ± 0.0064
SAg:PBMC Cytotoxicity | 0.009 | 0.0155 ± 0.036 | -0.155 | -0.0115 ± 0.015 | 0.014 ± 0.011 | 0.0195 ± 0.03 | 0.0075 ± 0.0078 | -0.022 ± 0.018 | 0.0185 ± 0.021 | -0.01 ± 0.013 | -0.006 ± 0.027 | -0.0005 ± 0.05 | -0.233 ± 0.016 | -0.266 ± 0.02 | -0.268 ± 0.076 | -0.003 ± 0.023 | 0.026 | -0.0295 ± 0.012
3C:SRB | 0.01 ± 0.034 | -0.021 ± 0.033 | -0.106 | -0.0075 ± 0.025 | 0.004 ± 0.025 | 0.0095 ± 0.032 | -0.0025 ± 0.0035 | 0.008 ± 0.013 | 0.013 ± 0.0071 | -0.001 ± 0.03 | 0.008 ± 0.018 | 0.0075 ± 0.005 | -0.043 ± 0.0014 | -0.115 ± 0.021 | -0.116 ± 0.014 | -0.0195 ± 0.018 | 0.03 | -0.014 ± 0.0099
BF4T:CCL26/Eotaxin-3 | -0.0415 ± 0.042 | -0.134 ± 0.0021 | -0.255 | -0.0205 ± 0.046 | -0.0015 ± 0.015 | 0.0105 ± 0.047 | 0.023 ± 0.031 | 0.017 ± 0.033 | 0.035 ± 0.045 | -0.0555 ± 0.012 | -0.0785 ± 0.079 | -0.098 ± 0.12 | -0.012 ± 0.0042 | -0.003 ± 0.011 | -0.0015 ± 0.0078 | -0.029 ± 0.017 | -0.071 | -0.106 ± 0.012
LPS:CCL2/MCP-1 | -0.0035 ± 0.00071 | -0.0135 ± 0.015 | 0.01 | -0.006 ± 0.0071 | -0.002 ± 0.023 | -0.006 ± 0.011 | 0.0165 ± 0.005 | 0.008 ± 0.041 | 0.0265 ± 0.033 | -0.0105 ± 0.0021 | -0.014 ± 0.0071 | 0.015 ± 0.041 | -0.001 ± 0.0028 | -0.011 ± 0.011 | -0.009 ± 0.035 | -0.0925 ± 0.13 | 0.01 | 0.0055 ± 0.011
SAg:CD38 | -0.0275 ± 0.00071 | -0.04 ± 0.0099 | -0.027 | -0.001 ± 0.028 | -0.0075 ± 0.018 | -0.0165 ± 0.023 | -0.021 ± 0.025 | -0.031 ± 0.034 | -0.031 ± 0.055 | -0.001 ± 0.0085 | -0.003 ± 0.0071 | -0.004 ± 0.013 | -0.0115 ± 0.084 | -0.014 ± 0.073 | 0.0035 ± 0.042 | -0.017 ± 0.016 | -0.008 | -0.004
4H:VEGFR2 | -0.0455 ± 0.07 | -0.0125 ± 0.0092 | 0.055 | -0.0535 ± 0.036 | -0.0665 ± 0.005 | -0.0205 ± 0.047 | -0.0325 ± 0.029 | 0.018 ± 0.031 | 0.047 ± 0.035 | 0.019 ± 0.024 | 0.0175 ± 0.026 | 0.016 ± 0.04 | -0.027 ± 0.023 | -0.0135 ± 0.033 | -0.008 ± 0.048 | -0.013 ± 0.0085 | -0.002 | 0.0185 ± 0.0064
BE3C:CXCL9/MIG | -0.0105 ± 0.0021 | -0.0495 ± 0.0021 | -0.53 | 0.01 ± 0.0042 | -0.0025 ± 0.005 | 0.0095 ± 0.0092 | 0.018 ± 0.011 | 0.007 ± 0.0099 | 0.0065 ± 0.022 | -0.0115 ± 0.0035 | -0.0075 ± 0.00071 | 0.0115 ± 0.021 | -0.0195 ± 0.00071 | -0.03 ± 0.0028 | -0.0385 ± 0.022 | -0.0045 ± 0.018 | 0.01 | -0.0095 ± 0.00071
SAg:CXCL8/IL-8 | -0.0125 ± 0.037 | -0.01 ± 0.018 | -0.051 | 0.0075 ± 0.0021 | 0.002 ± 0.0057 | -0.0015 ± 0.025 | -0.024 ± 0.0071 | -0.029 ± 0.042 | 0.0065 ± 0.005 | -0.021 ± 0.0099 | -0.029 ± 0.0099 | -0.0185 ± 0.043 | 0.0365 ± 0.042 | -0.0005 ± 0.0035 | -0.121 ± 0.28 | -0.0165 ± 0.028 | -0.012 | -0.0115 ± 0.047
BF4T:CD54/ICAM-1 | -0.031 ± 0.02 | -0.091 ± 0.0071 | -0.138 | -0.0055 ± 0.0035 | -0.0085 ± 0.011 | 0.0025 ± 0.0021 | 0.0065 ± 0.0064 | -0.004 | 0.016 ± 0.017 | -0.0145 ± 0.013 | -0.026 ± 0.0042 | -0.0285 ± 0.026 | -0.0125 ± 0.005 | -0.015 ± 0.018 | -0.0015 ± 0.00071 | -0.007 ± 0.016 | -0.073 | -0.0365 ± 0.015
BF4T:MMP-9 | -0.0185 ± 0.015 | -0.063 ± 0.0028 | -0.135 | 0.0045 ± 0.013 | -0.0015 ± 0.013 | 0.0275 ± 0.06 | -0.0075 ± 0.025 | -0.0125 ± 0.025 | 0.005 ± 0.0071 | -0.0255 ± 0.0064 | -0.0215 ± 0.012 | -0.021 ± 0.042 | -0.025 ± 0.03 | -0.02 ± 0.0071 | -0.03 ± 0.0057 | 0.0155 ± 0.057 | -0.059 | -0.0325 ± 0.0078
